{"source": "paper PMC5872235", "about": "(2018)", "key": {"[1]": {"tested_on": "Superantigen negative Staphylococcus aureus (n = 48)", "assay": "microbe, parasite or virus in culture", "settings": "18 h"}, "[2]": {"tested_on": "Staphylococcus aureus strains isolated from control group", "assay": "microbe, parasite or virus in culture", "settings": "18 h"}, "[3]": {"tested_on": "Staphylococcus aureus strains isolated from control group"}, "[4]": {"tested_on": "S. aureus in control group", "type": "cell-based, Staphylococcus aureus"}, "[5]": {"tested_on": "Staphylococcus aureus strains isolated from atopic dermatitis (AD) patients", "assay": "microbe, parasite or virus in culture", "settings": "18 h"}, "[6]": {"tested_on": "S. aureus in patients with atopic dermatitis", "type": "cell-based, Staphylococcus aureus"}, "[7]": {"tested_on": "Superantigen positive Staphylococcus aureus (n = 52)", "assay": "microbe, parasite or virus in culture", "settings": "18 h"}, "[8]": {"tested_on": "Superantigen positive Staphylococcus aureus (n = 52)"}, "[9]": {"tested_on": "Superantigen negative Staphylococcus aureus (n = 48)"}, "[10]": {"tested_on": "vancomycin intermediate S. aureus (VISA) isolates", "settings": "cited from earlier work"}, "[11]": {"tested_on": "Staphylococcus aureus strains isolated from atopic dermatitis (AD) patients"}, "S. aureus isolates": {"tested_on": "S. aureus isolates", "settings": "cited from earlier work"}, "[12]": {"settings": "Superantigen positive (n = 52, 18 h)"}, "[13]": {"settings": "Superantigen negative (n = 48, 18 h)"}, "[14]": {"settings": "strains isolated from control group, 18 h"}, "[15]": {"settings": "strains isolated from atopic dermatitis (AD) patients, 18 h"}}, "note": "Where “and” joins values, the source holds several entries; their conditions need not be identical. Equal values may be shown once. Read-outs that look alike come from different tables or passages of the source. Peptide text beside a SMILES is read from it.", "data": [{"molecule": "CC1(C)S[C@@H]2[C@H](NC(=O)[C@H](N)c3ccccc3)C(=O)N2[C@H]1C(=O)O", "note": "[Ampicillin, ampicillin]", "values": [{"measurement": "MIC50", "setting": "[1]", "result": 8, "unit": "µg/mL"}, {"measurement": "MIC90", "setting": "[1]", "result": 16, "unit": "µg/mL"}, {"measurement": "MIC50", "setting": "[2]", "result": 16, "unit": "µg/mL"}, {"measurement": "MIC90", "setting": "[2]", "result": 32, "unit": "µg/mL"}, {"measurement": "MIC Range", "setting": "[3]", "result": "0.25 to 32", "unit": "µg/mL"}, {"measurement": "Resistance (%), resistant strains", "setting": "[4]", "result": 4, "unit": "%"}, {"measurement": "MIC50", "setting": "[5]", "result": 2, "unit": "µg/mL"}, {"measurement": "MIC90", "setting": "[5]", "result": 16, "unit": "µg/mL"}, {"measurement": "Resistance (%), resistant strains", "setting": "[6]", "result": 58.5, "unit": "%"}, {"measurement": "MIC50", "setting": "[7]", "result": 1, "unit": "µg/mL"}, {"measurement": "MIC90", "setting": "[7]", "result": 8, "unit": "µg/mL"}]}, {"molecule": "CC[C@H](C)[C@H](NC(=O)[C@H](CCCCN)NC(=O)[C@H](CCCCN)NC(=O)[C@H](Cc1ccccc1)NC(=O)[C@H](CC(C)C)NC(=O)[C@H](CCCCN)NC(=O)[C@H](Cc1c[nH]c2ccccc12)NC(=O)[C@@H](N)CCCCN)C(=O)NCC(=O)N[C@@H](C)C(=O)N[C@H](C(=O)N[C@@H](CC(C)C)C(=O)N[C@@H](CCCCN)C(=O)N[C@H](C(=O)N[C@@H](CC(C)C)C(N)=O)C(C)C)C(C)C", "note": "[CAMEL] (H-KWKLFKKIGAVLKVL-NH2)", "values": [{"measurement": "MIC50", "setting": "[8]; [12]", "result": 4, "unit": "µg/mL"}, {"measurement": "MIC90", "setting": "[8]; [12]", "result": 8, "unit": "µg/mL"}, {"measurement": "MIC Range", "setting": "[8]; [12]", "result": "1 to 8", "unit": "µg/mL"}, {"measurement": "MIC50", "setting": "[9]; [13]", "result": 4, "unit": "µg/mL"}, {"measurement": "MIC90", "setting": "[9]; [13]", "result": 4, "unit": "µg/mL"}, {"measurement": "MIC Range", "setting": "[9]; [13]", "result": "2 to 128", "unit": "µg/mL"}]}, {"molecule": "CC[C@H](C)[C@H](NC(=O)[C@@H](NC(=O)[C@H](CO)NC(=O)[C@H](C)NC(=O)[C@@H](NC(=O)[C@H](CCCCN)NC(=O)[C@H](CCCCN)NC(=O)[C@@H](NC(=O)[C@@H](NC(=O)[C@H](CC(=O)O)NC(=O)[C@H](Cc1ccccc1)NC(=O)[C@H](CC(C)C)NC(=O)CN)C(C)C)[C@@H](C)CC)C(C)C)C(C)C)C(=O)NCC(=O)NCC(=O)N[C@@H](CC(C)C)C(N)=O", "note": "[Citropin 1.1] (H-GLFDVIKKVASVIGGL-NH2)", "values": [{"measurement": "MIC50", "setting": "[8]; [12]", "result": 16, "unit": "µg/mL"}, {"measurement": "MIC90", "setting": "[8]; [12]", "result": 16, "unit": "µg/mL"}, {"measurement": "MIC Range", "setting": "[8]; [12]", "result": "1 to 64", "unit": "µg/mL"}, {"measurement": "MIC50", "setting": "[9]; [13]", "result": 16, "unit": "µg/mL"}, {"measurement": "MIC90", "setting": "[9]; [13]", "result": 32, "unit": "µg/mL"}, {"measurement": "MIC Range", "setting": "[9]; [13]", "result": "1 to 128", "unit": "µg/mL"}]}, {"molecule": "CCCCCCCCCC(=O)N[C@@H](Cc1c[nH]c2ccccc12)C(=O)N[C@H](CC(N)=O)C(=O)N[C@@H](CC(=O)O)C(=O)N[C@@H]1C(=O)NCC(=O)N[C@@H](CCCN)C(=O)N[C@@H](CC(=O)O)C(=O)N[C@H](C)C(=O)N[C@@H](CC(=O)O)C(=O)NCC(=O)N[C@H](CO)C(=O)N[C@@H]([C@H](C)CC(=O)O)C(=O)N[C@@H](CC(=O)c2ccccc2N)C(=O)O[C@@H]1C", "note": "[Daptomycin, daptomycin]", "values": [{"measurement": "MIC", "setting": "[10]", "result": 4, "unit": "µg/mL"}, {"measurement": "minimum inhibitory concentration (MIC)", "setting": "[10]", "result": 2, "unit": "µg/mL"}, {"measurement": "MIC50", "setting": "[8]; [12]", "result": 2, "unit": "µg/mL"}, {"measurement": "MIC90", "setting": "[8]; [12]", "result": 2, "unit": "µg/mL"}, {"measurement": "MIC Range", "setting": "[8]; [12]", "result": "0.125 to 4", "unit": "µg/mL"}, {"measurement": "MIC50", "setting": "[3]; [14]", "result": 2, "unit": "µg/mL"}, {"measurement": "MIC90", "setting": "[3]; [14]", "result": 2, "unit": "µg/mL"}, {"measurement": "MIC Range", "setting": "[3]; [14]", "result": "1 to 2", "unit": "µg/mL"}, {"measurement": "MIC50", "setting": "[9]; [13]", "result": 2, "unit": "µg/mL"}, {"measurement": "MIC90", "setting": "[9]; [13]", "result": 4, "unit": "µg/mL"}, {"measurement": "MIC Range", "setting": "[9]; [13]", "result": "0.0625 to 4", "unit": "µg/mL"}, {"measurement": "Resistance (%), resistant strains", "setting": "[4]", "result": 4, "unit": "%"}, {"measurement": "Resistance (%), resistant strains", "setting": "[6]", "result": 54.7, "unit": "%"}, {"measurement": "MIC50", "setting": "[11]; [15]", "result": 2, "unit": "µg/mL"}, {"measurement": "MIC90", "setting": "[11]; [15]", "result": 4, "unit": "µg/mL"}, {"measurement": "MIC Range", "setting": "[11]; [15]", "result": "0.125 to 4", "unit": "µg/mL"}]}, {"molecule": "CC[C@H]1OC(=O)[C@H](C)[C@@H](O[C@H]2C[C@@](C)(OC)[C@@H](O)[C@H](C)O2)[C@H](C)[C@@H](O[C@@H]2O[C@H](C)C[C@H](N(C)C)[C@H]2O)[C@](C)(O)C[C@@H](C)C(=O)[C@H](C)[C@@H](O)[C@]1(C)O", "note": "[Erythromycin, erythromycin]", "values": [{"measurement": "MIC50", "setting": "[1]", "result": 0.5, "unit": "µg/mL"}, {"measurement": "MIC90", "setting": "[1]", "result": 256, "unit": "µg/mL"}, {"measurement": "MIC50", "setting": "[2]", "result": 1, "unit": "µg/mL"}, {"measurement": "MIC90", "setting": "[2]", "result": "> 512", "unit": "µg/mL"}, {"measurement": "rate of resistance", "setting": "S. aureus isolates", "result": "14% and 18%"}, {"measurement": "MIC50", "setting": "[5]", "result": 0.5, "unit": "µg/mL"}, {"measurement": "MIC90", "setting": "[5]", "result": "> 512", "unit": "µg/mL"}, {"measurement": "MIC50", "setting": "[7]", "result": 0.5, "unit": "µg/mL"}, {"measurement": "MIC90", "setting": "[7]", "result": "> 512", "unit": "µg/mL"}]}, {"molecule": "CC(=O)O[C@H]1C[C@@]2(C)[C@@H](C[C@@H](O)[C@H]3[C@@]4(C)CC[C@@H](O)[C@@H](C)[C@@H]4CC[C@@]32C)/C1=C(\\CCC=C(C)C)C(=O)O", "note": "[Fusidic acid, fusidic acid]", "values": [{"measurement": "MIC50", "setting": "[1]", "result": 0.125, "unit": "µg/mL"}, {"measurement": "MIC90", "setting": "[1]", "result": 4, "unit": "µg/mL"}, {"measurement": "MIC50", "setting": "[2]", "result": 1, "unit": "µg/mL"}, {"measurement": "MIC90", "setting": "[2]", "result": 16, "unit": "µg/mL"}, {"measurement": "MIC Range", "setting": "[8]", "result": "0.0625 to 32", "unit": "µg/mL"}, {"measurement": "S. aureus isolates resistant", "setting": "S. aureus isolates", "result": 50, "unit": "%"}, {"measurement": "MIC Range", "setting": "[3]", "result": "0.125 to 16", "unit": "µg/mL"}, {"measurement": "MIC Range", "setting": "[9]", "result": "0.0312 to 32", "unit": "µg/mL"}, {"measurement": "MIC50", "setting": "[5]", "result": 0.125, "unit": "µg/mL"}, {"measurement": "MIC90", "setting": "[5]", "result": 8, "unit": "µg/mL"}, {"measurement": "Resistance (%), resistant strains", "setting": "[6]", "result": 15.5, "unit": "%"}, {"measurement": "MIC50", "setting": "[7]", "result": 0.125, "unit": "µg/mL"}, {"measurement": "MIC90", "setting": "[7]", "result": 8, "unit": "µg/mL"}, {"measurement": "MIC Range", "setting": "[11]", "result": "0.312 to 32", "unit": "µg/mL"}]}]}
